This note sets out measurements from patent publication US20160374944A1, “COMPOSITIONS AND METHODS FOR TREATING AND PREVENTING CANCER BY TARGETING AND INHIBITING CANCER STEM CELLS” (priority 2011, published 2016).

Assay [1] deals with Pancreatic CSCs. The experiment in a line: gene expression by qRT-PCR. In kind it is cell-based, human. As to the method:
FIG. 19 is a graph showing the regulation by rottlerin of cMyc, Nanog, Oct-4, and Sox-2 in pancreatic CSCs. Pancreatic CSCs were treated with rottlerin (0-1 μM) for 24 h. The expression of Nanog, Sox-2 and cMyc was measured by qRT-PCR and normalized to GAPDH.
(A) Pancreatic CSCs were treated with rottlerin (0-1 μM) for 24 h. The expression of Patched-1, Smo and Gli-2 was measured by qRT-PCR. […] (B) Pancreatic CSCs were transduced with Gli-responsive GFP/firefly luciferase viral particles (pGreen Fire1-Gli with EF1, System Biosciences). After transduction, culture medium was replaced and CSCs were treated with rottlerin (0-2 μM) for 24 h. Gli-responsive reporter activity was measured using a luciferase assay (Promega Corporation).
(A and B) Induction of apoptosis and activation of caspase-3/-7. Pancreatic CSCs were treated with rottlerin (0-2 μM) for 48 h, and apoptosis and caspase-3/-7 activity were measured by […] and colorometric assay, respectively. […] (C) Pancreatic CSCs were treated with rottlerin (0-1 μM) for 48 h, and the expression of Bcl-2, XIAP and Survivin was measured by qRT-PCR and normalized to GAPDH.
(A and B) Pancreatic CSCs were treated with rottlerin (0-1 μM) for 24 h. The expression of Zeb-1 and Slug was measured by the qRT-PCR and normalized to GAPDH. […] (C) In vitro Matrigel invasion assay. CSCs were plated onto the Matrigel-coated membrane in the top chamber of the transwell and treated with rottlerin (0-2 μM) for 48 h. Cells invaded to the lower chamber were fixed with methanol, stained with crystal violet and photo micrographed.
(A) Regulation of caspase-3/7 activity by EGCG. CSCs were treated with EGCG (0-60 μM) for 24 h, and caspase-3/7 activity was measured as per manufacturer's instructions. […] (B) Regulation of apoptosis by EGCG. CSCs were treated with EGCG (0-60 μM) for 48 h, and apoptosis was measured by TUNEL assay. […] (C) Regulation of apoptosis-related proteins. Pancreatic CSCs were treated with EGCG (0-60 μM) for 36 h. Real time PCR (q-RT-PCR) was performed to examine the expression of Bcl-2, survivin, XIAP, and GAPDH.
[…] At the end of incubation period, cells were harvested and the expression of Nanog, Sox-2, c-Myc and Oct-4 was measured by the q-RT-PCR. […] (B) Nanog shRNA enhances the inhibitory effects of EGCG on CSC's spheroid viability. Pancreatic CSCs were transduced with either scrambled shRNA or Nanog shRNA expressing lentiviral vector (pLKO.1), and cell lysates were collected and western blot analysis was performed using anti-Nanog antibody (data not shown). CSC/scrambled and CSC/Nanog shRNA were seeded as described above and treated with EGCG (0-60 μM). After 7 days, spheroids were collected and cell suspensions were prepared and viable cells were counted by trypan blue assay.
FIG. 40A and FIG. 40C are graphs and photographs showing the inhibition of components of sonic hedgehog pathway, Gli transcription and nuclear translocation by EGCG. (A) Inhibition of components of sonic hedgehog pathway and Gli transcription. Pancreatic CSCs were treated with EGCG (0-60 μM) for 36 h. The expression of Smothened (Smo), patched 1 (PTCH1), patched 2 (PTCH2), was measured by q-RT-PCR. […] (B) Inhibition of Gli1 and Gli2 expression and Gli transcription. Pancreatic CSCs were treated with EGCG (0-60 μM) for 36 h. The expression of Gli1 and Gli2 was measured by q-RT-PCR. Gli reporter activity. CSCs were transduced with Gli-responsive GFP/firefly luciferase viral particles (pGreen Fire1-Gli with EF1, System Biosciences). After transduction, culture medium was replaced and CSCs were treated with EGCG (0-60 μM) for 24 h. Gli-responsive reporter activity was measured by luciferase assay (Promega Corporation). […] (C) EGCG inhibits nuclear translocation of Gli1 and Gli2. Pancreatic CSCs were treated with or without EGCG (40 or 60 μM) for 24 h. At the end of incubation period, CSCs were fixed with paraformaldehyde, permeabilized with titron X100, and blocked with 5% normal goat serum. […]
On the technique in general: In qPCR the cycle at which signal appears reflects the starting amount.

Assay [2] relates to Pancreatic CSCs. The experiment in a line: spheroid formation and cell viability in spheroids (trypan blue). Conditions: SFN 0-10 μM with or without quercetin 20 μM, 7 days. The assay is classed as cell-based, human.
Assay [3] deals with TCF/LEF-1 reporter activity in prostate CSCs. The experiment in a line: TCF/LEF1-responsive dual luciferase reporter. Conditions: rottlerin 0-2 μM, 24 h, dual luciferase assay. In kind it is cell-based, human. The protocol:
FIG. 17 graphs showing the regulation of Shh, Notch and TGFβ pathways by rottlerin. […] The expression of Patched-1, Patched-2, SMO, Gli1 and Gli2 was measured by qRT-PCR. […] Data were normalized with GAPDH. (D) Prostate CSCs were treated with rottlerin (0-1 μM) for 24 h. The expression of Notch1, Notch3 and JAG1 was measured by qRT-PCR. (E) TCF/LEF-1, Gli and Notch reporter activities. Prostate CSCs were transduced with a mixture of TCF/LEF1-, Gli-, or Notch-responsive firefly luciferase construct and Renilla luciferase construct (40:1) along with lipofectamine. After transduction, medium was changed and CSCs were treated with rottlerin (0-2 μM) for 24 h. […] (F) Immunofluorescence analysis of Gli1 and Gli2 expression in prostate CSCs. Green=Gli1 or Gli2; red=nucleus.
In general terms: A reporter such as luciferase makes a cellular process visible.

Assay [4] relates to Pancreatic CSCs. The experiment in a line: pancreatic CSCs xenografted sub-cutaneously in NSG mice. In kind it is in vivo. Conditions: NOD/SCID/IL2R gamma mice, 20 mg/kg, 6 weeks. As to the method: (A) Pancreatic CSCs were orthotopically implanted in pancreas of NSG mice, and treated with or without sulforaphane 20 mg/kg, for 6 weeks, (B and C) Pancreatic CSCs were xenografted sub-cutaneously in NSG mice, and treated with or without rottlerin and embelin 20 mg/kg, for 6 weeks, (D and E) Prostate CSCs were xenografted sub-cutaneously in NSG mice, and treated with or without rottlerin and embelin 20 mg/kg, for 6 weeks. At the end of the treatment, weights of tumors in treated mice were compared with control mice.

Assay [5] deals with human pancreatic cancer cells.
Assay [6] concerns pancreatic cancer stem cells.
Setting [7] is: qRT-PCR, rottlerin 0-1 μM, 24 h.
The mark [8] stands for this setting: qRT-PCR, rottlerin 0-1 μM, 48 h.

Regarding `O=C(O[C@@H]1Cc2c(O)cc(O)cc2O[C@@H]1c1cc(O)c(O)c(O)c1)c1cc(O)c(O)c(O)c1` [EGCG, epigallocatechin gallate], in the assay with Pancreatic CSCs [1] (q-RT-PCR, EGCG 0-60 μM, 36 h), the “expression of Bcl-2” value is “inhibited the expression”, the “expression of Gli1” value was “inhibited the expression”, the “expression of Gli2” value was “inhibited the expression” and the “expression of Nanog” value was “inhibited the expression”. Also, in the assay with Pancreatic CSCs [1] (q-RT-PCR, EGCG 0-60 μM, 36 h), the “expression of Oct-4” value is reported as “inhibited the expression”, the “expression of Patched-1” value was “inhibited the expression”, the “expression of Patched-2” value is reported as “inhibited the expression” and the “expression of Sox-2” value is on record as “no effect on the expression”. For the same compound, in the assay with Pancreatic CSCs [1] (q-RT-PCR, EGCG 0-60 μM, 36 h), the “expression of XIAP” value was “inhibited the expression”, the “expression of c-Myc” value is “inhibited the expression”, the “expression of smoothened (SMO)” value is on record as “inhibited the expression” and the expression of survivin result is on record as “inhibited the expression”. Further, in the assay with Pancreatic CSCs [1] (q-RT-PCR, EGCG 0-60 μM, 48 h), the “expression of Slug” value is recorded as “inhibited the expression”, the “expression of Snail” value is listed as “inhibited the expression” and the “expression of ZEB1” value is on record as “inhibited the expression”.

Consider `O=c1c(O)c(-c2ccc(O)c(O)c2)oc2cc(O)cc(O)c12` [quercetin], for which the “cell viability in spheroids” value in the assay with Pancreatic CSCs [2] was “effective alone”.

Consider `CC(=O)c1c(O)c(C)c(O)c(Cc2c(O)c3c(c(C(=O)/C=C/c4ccccc4)c2O)OC(C)(C)C=C3)c1O` [rottlerin], for which, in the assay with Pancreatic CSCs [1] (setting [7]), the “expression of Gli2” value is on record as “inhibited the expression”, the “expression of Nanog” value is on record as “inhibited the expression”, the “expression of Patched-1” value was “inhibited the expression” and the “expression of Slug” value was “inhibited the expression”. For the same compound, in the assay with Pancreatic CSCs [1] (setting [7]), the “expression of Smo” value is on record as “inhibited the expression”, the “expression of Sox-2” value is on record as “inhibited the expression”, the “expression of Zeb-1” value is “inhibited the expression” and the “expression of cMyc” value is listed as “inhibited the expression”. Besides, in the assay on Pancreatic CSCs [1] (setting [8]), the “expression of Bcl-2” value is recorded as “inhibited the expression”, the “expression of XIAP” value is “inhibited the expression” and the “expression of survivin” value is on record as “inhibited the expression”. In addition, in assay [3], the “TCF/LEF1 responsive reporter activity” value is “inhibited the TCF/LEF1, Gli1 and Notch responsive reporter activities in a dose-dependent manner”. For the same compound, the “tumor growth (weights of tumors vs control mice)” value with Pancreatic CSCs [4] is “inhibit tumor growth”.

On to `C[S+]([O-])CCCCN=C=S` (centres unmarked) [sulforaphane], for which the “growth of human pancreatic cancer cells” value in assay [5] is listed as “inhibits the growth”. For the same compound, the “cell viability in spheroids” value in the assay on Pancreatic CSCs [2] was “inhibited the cell viability and colony formation of pancreatic CSCs in a dose-dependent manner”. Also, the “growth of pancreatic cancer stem cells” value in assay [6] is reported as “inhibits the growth”.
